# Assay results taken from publication PMC8541342, “Expression, Purification and Refolding of a Human NaV1.7 Voltage Sensing Domain with Native-like Toxin Binding Properties” (Toxins, 2021).
# Entries after “also recorded” stand apart in the source; their conditions may differ.
# B1: VSD2/DMPC complex: recombinant refolded NaV1.7 VSD of repeat II, residues 732–860 (UniProt ID Q15858-3), reconstituted into DMPC vesicles (protein)
# chain: DPFVDLAITICIVLNTLFMAMEHHPMTEEFKNVLAIGNLVFTGIFAAEMVLKLIAMDPYEYFQVGWNIFDSLIVTLSLVELFLADVEGLSVLRSFRLLRVFKLAKSWPTLNMLIKIIGNSVGALGNLTL
# How the values were obtained:
# full-length NaV1.7 = conditions: cited from earlier work
# mice = conditions: ref [9]; cited from earlier work
# From the text: This system opens up possibilities for detailed biophysical studies of binding interactions with toxins and other drug candidates for the development of new non-addictive pain therapeutics targeting NaV1.7. In addition, because the protein is expressed in E. coli, it also enables the preparation of isotope-labeled samples or the introduction of unnatural amino acids for structural and functional studies.
# [1] = tested on: F813A and D816A mutants of NaV1.7 VSD2 in DMPC vesicles; experiment: MST binding to mutant VSD2 compared with WT (overlay, Figure S6); parameters: species or system human; conditions: F813A and D816A vs WT VSD2 in DMPC
# Experimental: (Supplementary Material, Figure S5). […] Lastly, it is additional confirmation that our recombinant system captures details of the interactions that correspond to those with full-length channel in native membranes.
# The analysis of the MST binding titrations was carried out with the NanoTemper analy sis software, and the relative fluo-rescence measurements and fitted binding cur ves were combined into a single graph to illustrate the rightshift (lower binding affinity) in both mutants. Based on this analysis, both Phe 813 and Asp 816 appear to play an important role in […]
# [2] = Dynamic light scattering particle size; format: physicochemical; conditions: DLS, VSD2 in DMPC ~40 μM, fixed-angle, 25 °C, spherical geometry assumed
# Experimental: A Brookhaven NanoBrook series instrument was used to perform dynamic light scattering (DLS). The sample in this experiment was the VSD in DMPC solution prepared as described above at a concentration of ~40 μM. Sample was placed into a 1 cm quartz cuvette, and fixed-angle DLS was performed at 25 °C. Measurements of fixed-angle scattering were averaged over time intervals and, therefore, gave the correlation function, which in turn yielded the particle size distribution (assuming exponential correlation), reported as diameter in nm. This processing was done using the NanoBrook instrument analysis software. Particle size analysis assumes spherical geometry.
Molecule,IC50 (full-length NaV1.7) [nM],analgesic effects in mice (in words) (mice),change in binding affinity for mutants (in words) [1],mean particle diameter / size distribution maximum [2]
CC[C@H](C)[C@@H]1NC(=O)[C@@H]2CSSC[C@@H]3NC(=O)[C@H](C(C)C)NC(=O)[C@H](CC(C)C)NC(=O)[C@H](CC(N)=O)NC(=O)[C@@H]4CCCN4C(=O)[C@H](CCCNC(=N)N)NC(=O)[C@H](CSSC[C@H](NC(=O)[C@@H](N)CC(=O)O)C(=O)N[C@@H](CC(C)C)C(=O)NCC(=O)N[C@@H](Cc4ccccc4)C(=O)N[C@@H](CCSC)C(=O)N[C@@H](CCCNC(=N)N)C(=O)N[C@@H](CCCCN)C(=O)N2)NC(=O)[C@H](CSSC[C@@H](C(=O)N[C@@H](CCCCN)C(=O)N[C@@H](Cc2ccc(O)cc2)C(=O)N[C@H](C(=O)N[C@@H](Cc2ccccc2)C(=O)O)C(C)C)NC(=O)[C@H](Cc2c[nH]c4ccccc24)NC(=O)[C@H](CCCCN)NC(=O)[C@H](Cc2c[nH]cn2)NC(=O)[C@H]([C@@H](C)O)NC(=O)[C@H](CCCNC(=N)N)NC(=O)[C@H](CO)NC3=O)NC(=O)[C@H](CCCCN)NC(=O)[C@H](CC(=O)O)NC(=O)[C@H](CC(N)=O)NC(=O)[C@H](CC(=O)O)NC(=O)[C@@H]2CCCN2C1=O [GpTx-I],10,analgesic effects superior to morphine in mice; also recorded: exhibits analgesic effects in mice,decreases in GpTx-I binding affinity; also recorded: substantial reduction in binding affinity,–
B1,–,–,–,roughly 80 nm
